Data as given in patent publication US20120077802A1 (SUNOVION PHARMACEUTICALS INC., priority 2009, published 2012).
Where two headings read alike, the source gives them in different places.

Assays:
[1] = target: T1, human histamine H3 receptor (Homo sapiens, UniProt Q9Y5N1); experiment: H3 GTPγS assay (SPA method), histamine H3 in vitro assay; type: biochemical; details: GTPγ[35S] SPA, membranes of cells expressing human H3 receptor; in one embodiment HCl salts tested; read-out: Potency (functional potency as indicated by IC50)
T1 construct: host or cells: cells expressing the human H3 receptor
T1 sequence (Q9Y5N1 whole entry): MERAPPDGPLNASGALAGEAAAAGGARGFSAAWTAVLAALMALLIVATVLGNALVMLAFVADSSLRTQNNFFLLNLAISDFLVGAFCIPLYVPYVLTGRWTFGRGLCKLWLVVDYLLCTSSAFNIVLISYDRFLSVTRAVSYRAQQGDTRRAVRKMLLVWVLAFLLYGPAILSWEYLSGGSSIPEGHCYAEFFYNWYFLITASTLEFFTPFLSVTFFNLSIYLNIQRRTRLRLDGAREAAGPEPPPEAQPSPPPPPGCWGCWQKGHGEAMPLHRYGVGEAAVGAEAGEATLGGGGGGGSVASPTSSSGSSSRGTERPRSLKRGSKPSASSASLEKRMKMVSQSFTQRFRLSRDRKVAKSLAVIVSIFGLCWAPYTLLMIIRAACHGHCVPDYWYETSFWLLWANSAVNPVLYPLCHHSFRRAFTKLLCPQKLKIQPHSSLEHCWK

[2] = In vivo rat PK, brain exposures; details: adult male rats, oral gavage in water; for concentration at 1 hr: 1 hr after dosing, read-out: Compound Concentration (ng/g rat brain) 1 hr; for concentration at 24 hr: 24 hr after dosing, read-out: Compound Concentration (ng/g rat brain) 24 hr
Procedure: In vivo rat PK studies were performed using certain compounds provided herein. In one embodiment, a compound was dissolved in water and was administered to adult male rats (n=3 per time point) by oral gavage at a dose of 3 to 10 mg/kg. The plasma samples were collected and brain tissues were harvested at various time points after dosing, e.g., 15 min, 30 min, 1 hr, 2 hr, and 24 hr after dosing. The PK samples were analyzed; and the compound concentrations in these samples were quantified by LC/MS. The pKa values of the R^6 moiety of the compounds were calculated using ACD Lab (Version 12.01).

SMILES: c1cc2c(cc1CN1CCCC1)CC1(CCN(C3CCC3)CC1)O2 [Compound 41, 1′-Cyclobutyl-5-(pyrrolidin-1-ylmethyl)-3H-spiro[benzofuran-2,4′-piperidine]]
- IC50 [1]: ≤ 10 nM
- concentration at 1 hr ([2]; 3 mg/kg): < 25 ng/g
- concentration at 24 hr ([2]; 3 mg/kg): 450 ng/g

SMILES: c1cc2c(cc1CN1CCOCC1)CC1(CCN(C3CCC3)CC1)O2 [Compound 40, 1′-Cyclobutyl-5-(morpholinomethyl)-3H-spiro[benzofuran-2,4′-piperidine]]
- IC50 [1]: ≤ 10 nM
- concentration at 1 hr ([2]; 3 mg/kg): 900 ng/g
- concentration at 24 hr ([2]; 3 mg/kg): 140 ng/g

SMILES: N#Cc1ccc(-c2ccc3c(c2)CC2(CCN(C4CCC4)CC2)O3)cc1 [Compound 5, 4-(1′-Cyclobutyl-3H-spiro[benzofuran-2,4′-piperidine]-5-yl)benzonitrile]
- IC50 [1]: ≤ 10 nM
- concentration at 1 hr ([2]; 5 mg/kg): 3100 ng/g
- concentration at 24 hr ([2]; 5 mg/kg): 400 ng/g
